According to paper PMC7155171, “Probing the Open Global Health Chemical Diversity Library for Multistage-Active Starting Points for Next-Generation Antimalarials” (ACS Infectious Diseases, 2020):
pIC50: −log10 of the molar value. Like-named read-outs stand apart in the source and are kept apart here.

Experiments:
P. falciparum Dd2 = assay: SYBR green I asexual blood stage proliferation assay (96 h); format: cell-based, Plasmodium falciparum; conditions: for pIC50 / Emax: Plasmodium falciparum
[1] = test system: P. falciparum Dd2 (PfLuc) line expressing firefly luciferase, asexual blood stage; assay: microbe, parasite or virus in culture; format: cell-based, Plasmodium falciparum; conditions: Plasmodium falciparum
[2] = DD2, 11-pt dose response, 96hr, read-out: P. falciparum Sybr Green I ABS 11-pt Reconfirmation Dose Response (96hr): IC50
[3] = DD2, 11-pt dose response, 96hr, read-out: P. falciparum Sybr Green I ABS 11-pt Reconfirmation Dose Response (96hr): Maximum inhibition (%)
[4] = DD2, read-out: P. falciparum Luciferase ABS 11-pt Reconfirmation Dose Response (48hr): IC50, 11-pt dose response, 48hr
[5] = DD2, 8-pt dose response, 96hr, read-out: P. falciparum Luciferase ABS 8-pt Reconfirmation Dose Response (96hr): IC50
[6] = DD2, 8-pt dose response, 96hr, read-out: P. falciparum Luciferase ABS 8-pt Reconfirmation Dose Response (96hr): Maximum inhibition (%)
[7] = DD2, 11-pt dose response, 48hr, read-out: P. falciparum Luciferase ABS 11-pt Reconfirmation Dose Response (48hr): Maximum inhibition (%)
[8] = DD2, 11-pt dose response, 96hr, read-out: P. falciparum Luciferase ABS 11-pt Reconfirmation Dose Response (96hr): IC50
[9] = DD2, 11-pt dose response, 96hr, read-out: P. falciparum Luciferase ABS 11-pt Reconfirmation Dose Response (96hr): Maximum inhibition (%)
[10] = DD2, Sybr Green I, 11-pt dose response, 96hr, read-out: CDD P. falciparum Sybr Green I ABS 11-pt Reconfirmation Dose Response (96hr): IC50
[11] = DD2, read-out: CDD P. falciparum Luciferase ABS 11-pt Reconfirmation Dose Response (48hr): IC50 (μM), 11-pt dose response, 48hr
[12] = DD2, 8-pt dose response, 96hr, read-out: CDD P. falciparum Luciferase ABS 8-pt Reconfirmation Dose Response (96hr): IC50
[13] = DD2, 8-pt dose response, 96hr, read-out: CDD P. falciparum Luciferase ABS 8-pt Reconfirmation Dose Response (96hr): Maximum inhibition (%)
[14] = DD2, 11-pt dose response, 48hr, read-out: CDD P. falciparum Luciferase ABS 11-pt Reconfirmation Dose Response (48hr): Maximum inhibition (%)
[15] = DD2, 11-pt dose response, 96hr, read-out: CDD P. falciparum Luciferase ABS 11-pt Reconfirmation Dose Response (96hr): IC50
[16] = DD2, 11-pt dose response, 96hr, read-out: CDD P. falciparum Luciferase ABS 11-pt Reconfirmation Dose Response (96hr): Maximum inhibition (%)
[17] = DD2, Sybr Green I, 11-pt dose response, 96hr, read-out: CDD P. falciparum Sybr Green I ABS 11-pt Reconfirmation Dose Response (96hr): Maximum inhibition (%)

Row | SMILES | pIC50 (P. falciparum Dd2; [2]) | pIC50 [1, 4] | pIC50 [1, 5] | Emax [1, 6] | pIC50 [1, 8] | Emax [1, 9] | pIC50 (P. falciparum Dd2; [10]) | IC50 [1, 11] | pIC50 [1, 12] | Emax [1, 13] | Emax [1, 14] | pIC50 [1, 15] | Emax [1, 16] | Emax (P. falciparum Dd2; [17]) | other results
1 | OCc1csc(N2CCCC(COc3cccc(F)c3)C2)n1 (centres unmarked) [DDD01251951] | 5.79 | < 4.90 | 5.77 | 79.1% | 5.40 | 82.9% |  |  |  |  |  |  |  |  | Emax (P. falciparum Dd2; [3]): 63%; Emax [1, 7]: 45.9%
2 | CN(CCCO)Cc1cc(Cl)ccc1OCC(O)CN1CCCCCC1 (centres unmarked) [DDD01251957] |  |  |  |  |  |  | 5.56 | 2.71 µM | 6.00 | 94.6% | 99.2% | < 5.86 | 101% |  | 
3 | CN1CCN(Cc2ccccc2Oc2nccc3occc23)CC1 [DDD01252026] |  |  |  |  |  |  | < 5.38 | > 12.5 µM | 6.15 | 83.5% | 26.1% | 5.54 | 85.7% | 63.4% | 
4 | O=C(C1CNCCO1)N1CCCC(c2ccccc2)(c2ccccc2)C1 (centres unmarked) [DDD01252287] | 5.24 | 5.16 | 5.66 | 80.7% | 5.69 | 83.1% |  |  |  |  |  |  |  |  | Emax (P. falciparum Dd2; [3]): 58.4%; Emax [1, 7]: 53.2%
5 | COCCn1ccnc1CN(Cc1ccccn1)Cc1sccc1C [DDD01252459] | < 5.38 | 5.46 | 5.92 | 90.8% | 6.14 | 99.1% |  |  |  |  |  |  |  |  | Emax (P. falciparum Dd2; [3]): 87.8%; Emax [1, 7]: 94.7%
6 | Cc1ccc(C2(CN(C)Cc3sccc3C)CCNCC2)nc1 [DDD01252463] |  |  |  |  |  |  | < 4.90 | > 12.5 µM | 6.14 | 78.8% | 41.3% | 5.80 | 81.7% | 57.2% | 
7 | c1ccn2c(C3CCCN(c4ncnc5c4CCNC5)C3)nnc2c1 (centres unmarked) [DDD01252518] |  |  |  |  |  |  | < 4.90 | > 1.39 µM | 6.59 | 90.8% | 64.8% | 6.35 | 97.6% | 42% | 
8 | CCOc1cccc(CN2CCCC(Nc3ccc(F)cc3)C2)c1O (centres unmarked) [DDD01252745] |  |  |  |  |  |  | 5.73 | 1.43 µM | 6.22 | 93.4% | 96.3% | 6.15 | 99.7% | 98.6% | 
9 | CN(CCO)C[C@@H]1CN(Cc2ccccc2-c2ccccc2)C[C@@H]1CO [DDD01252927] |  |  |  |  |  |  | < 5.86 | 8.14 µM | 6.24 | 92% | 71.8% | 5.90 | 92.8% | 89.1% | 
10 | Cc1ccc(C)c(OCCNC(=O)[C@@H]2CCCCN2)c1 [DDD01252936] |  |  |  |  |  |  | 5.12 | 6.36 µM | 6.43 | 89.3% | 74.3% | 5.93 | 87.5% |  | 
11 | CN(C)c1nc2c(c(NCc3cc(O)ncn3)n1)CCCC2 [DDD01252975] |  |  |  |  |  |  | 5.74 | 3.75 µM | 6.23 | 94% | 96% | 5.68 | 99.7% | 99.1% | 
12 | Cc1cc(F)ccc1N1CCC(N2C[C@@H](CN(C)C)[C@@H](CO)C2)CC1 [DDD01253692] |  |  |  |  |  |  | 5.69 | > 4.16 µM | 6.43 | 94.9% | 55.2% | 6.40 | 100% | 90.3% | 
13 | c1ccc(C2CN(C3CC3)CC3(CCN(Cc4cscn4)CC3)C2)cc1 (centres unmarked) [DDD01253863] | < 5.38 | 5.34 | 5.94 | 78.8% | 5.46 | 96.3% |  |  |  |  |  |  |  |  | Emax [1, 7]: 85%
14 | OC(CNCc1ccccc1C(F)(F)F)c1ccccc1 (centres unmarked) [DDD01254021] |  |  |  |  |  |  | 5.44 | 4.82 µM | 6.06 | 91.4% | 84.3% | 5.75 | 97.4% | 87.9% | 
15 | NCC1Cc2cc(-c3nccc(N4CCC(O)CC4)n3)cc(F)c2O1 (centres unmarked) [DDD01254054] |  |  |  |  |  |  | 5.60 | 2.43 µM | 6.23 | 94.6% | 91.4% | 5.73 | 98.9% | 92% | 
16 | COCCN(C)Cc1cc(Cl)ccc1OCC(O)CN1CCCCCC1 (centres unmarked) [DDD01254091] | 5.42 | 5.52 | 5.95 | 94.7% | < 5.86 | 101% |  |  |  |  |  |  |  |  | Emax (P. falciparum Dd2; [3]): 91.7%; Emax [1, 7]: 98.3%
17 | Nc1nc2c(c(N3CCCC(c4nnc5ccccn45)C3)n1)CCNC2 (centres unmarked) [DDD01254485] |  |  |  |  |  |  | < 4.90 | > 12.5 µM | 6.74 | 90.3% | 46.1% | 6.51 | 95.2% | 52.8% | 
18 | CNc1nc(C)cc(NC2CCCN(C3Cc4ccccc4C3)C2)n1 (centres unmarked) [DDD01254555] |  |  |  |  |  |  | 5.99 | 2.19 µM | 5.95 | 92.9% | 82.6% | 5.97 | 100% | 87% | 
19 | Cc1ccccc1N1CCCN(CC2(O)CCCNC2)CC1 (centres unmarked) [DDD01254676] |  |  |  |  |  |  | 5.80 | 3.64 µM | 6.27 | 90.4% | 89.1% | 5.86 | 97.2% | 91.2% | 
20 | CN(Cc1ncc[nH]1)c1nc(-c2ccccn2)nc2c1CCNCC2 [DDD01254777, CN(Cc1ncc[nH]1)c1nc(nc2CCNCCc12)-c1ccccn1] |  |  |  |  |  |  |  |  |  |  |  |  |  |  | CDD P. falciparum Sybr Green I ABS Dd2 Dose Response: Maximum measured (%) (P. falciparum Dd2; Dd2, 96 h): 65.7%; pIC50 (P. falciparum Dd2; DD2, 96 h, read-out: CDD P. falciparum Sybr Green I ABS Dd2 Dose Response: IC50): < 5.38; IC50 ([1]; DD2, read-out: CDD P. falciparum Luc 11pt dose response (96hr, n=2): IC50 (μM), 96hr, 11-point, n=2): 0.214 µM; IC50 ([1]; DD2, read-out: CDD P. falciparum Luciferase 11pt dose response (48hr, n=2): IC50 (μM), 48hr, 11-point, n=2): 10.2 µM; Emax ([1]; DD2, 48hr, 11-point, read-out: CDD P. falciparum Luciferase ABS 11-pt Reconfirmation Dose Response (48hr): Maximum inhibition (%)): 65.1%; Emax ([1]; DD2, 96hr, 11-point, read-out: CDD P. falciparum Luciferase ABS 11-pt Reconfirmation Dose Response (96hr): Maximum inhibition (%)): 94.2%; pIC50 ([1]; 96 h incubation, Dd2 luciferase, read-out: 96 hour Pfluc IC50): 6.68
21 | CN1CCC(C2CCN(Cc3cccc(-n4cccn4)c3)CC2)C1 (centres unmarked) [DDD01255349] |  |  |  |  |  |  | 5.69 | 0.818 µM | 6.19 | 93.2% | 97.1% | 6.34 | 100% | 94.8% | 
22 | Clc1cccc2c3c([nH]c12)CCN(Cc1cc2n(n1)CCCNC2)C3 [DDD01255494] | 5.45 | 5.42 | 5.92 | 91.2% | 5.97 | 99.6% |  |  |  |  |  |  |  |  | Emax (P. falciparum Dd2; [3]): 91%
23 | COc1ccc(-c2ccccc2CCN)c(OC)c1OC [DDD01256178] |  |  |  |  |  |  | 5.52 | 3.3 µM | 6.00 | 87.9% | 83.2% | 5.68 | 98.8% | 89.5% | 
24 | CC(C)(C)c1nccc(C2(c3ccccc3Cl)CCNCC2)n1 [DDD01256872] | 5.77 | 5.25 | 5.69 | 78.8% | 5.91 | 98.3% |  |  |  |  |  |  |  |  | Emax (P. falciparum Dd2; [3]): 74.4%; Emax [1, 7]: 91.9%
25 | CO[C@H]1CN(C(C)C)C[C@@H]1NC(=O)c1cc(-c2ccccc2O)n[nH]1 [DDD01257008] | 5.34 | 5.14 | 5.89 | 94.7% | 5.49 | 97.2% |  |  |  |  |  |  |  |  | Emax (P. falciparum Dd2; [3]): 94.2%; Emax [1, 7]: 87.1%
26 | CC(C)n1ccnc1C1CCCN(c2ccnc3ccccc23)C1 (centres unmarked) [DDD01257414] |  |  |  |  |  |  | 5.71 | 2.09 µM | 6.10 | 94.6% | 95.8% | 5.79 | 99.7% | 98.5% | 
